Data set [1] concerns HUVECs. The conditions noted are these: cited from earlier work; for ET-1 secretion and NO generation in HUVECs: peptide from tuna roes, ref [31]; for NO and ET-1 production in HUVECs: ref [73]. An excerpt:
(§1) In addition, ET-1 is a known vasoconstriction factor, similar to Ang II, that can result in endothelial dysfunction associated with high blood pressure and atherosclerosis.

The target of data set [2] is T1, ACE (Homo sapiens, UniProt P12821). The conditions noted are these: cited from earlier work. The protocol:
To illustrate the ACEi mechanism of MHP6, MHP7 and MHP9, a molecular docking assay was conducted (Figure 7), and the affinities of MHP6, MHP7 and MHP9 with ACE were −7.3, −10.9 and −9.4 kcal/mol, respectively, which were similar to those of ACEi peptides from miiuy croakers (IKSW: −9.3 kcal/mol), M. edulis (LSFR: −8.5 kcal/mol), rice bran (YSK: −7.9 kcal/mol), tuna milts (YEGDP: −8.8 kcal/mol) and soybean (LVLL: −8.6 kca ...

The target in data set [3] is T1, ACE. The data set can be described thus: ACEi activity (FAPGG substrate). Type of data set: biochemical. To be noted: 1.5 mg/mL; FAPGG (3 mM) substrate, ACE 1.25 mU, 37 °C, 0.5 h incubation, HPLC at 228 nm; mean ± SD, n = 3. The protocol:
The ACEi activity of PSC-MH, fractions and peptides (MHP1-MHP12) was determined by using FAPGG as a substrate. Briefly, the initial volume was made up of a 50 µL volume of FAPGG (3 mM), ACE (1.25 mU) and the sample solution, respectively. These solutions were first preheated at 37 °C for 0.5 h […], and mixed and incubated for an additional 0.5 h. After that, 150 µL of glacial acetic acid was added to the solution to inactivate ACE. After that, the content of hippuric acid (HA) in the reaction mixture produced from the substrate reactions catalyzed by ACE was determined using HPLC at 228 nm. In short, using an isocratic system (pH 3.0) made up of 12.5% (v/v) acetonitrile in deionized water, the amount of free HA was evaluated using an HPLC system (Agilent 1200, Agilent Ltd., Santa Clara, CA, USA) on a Zorbax SB C-18 column (4.6 × 250 mm, 5 µm). The sample (10 µL) was eluted at a flow rate of 1.0 mL/min, and the absorbance at 228 nm was monitored to obtain the measurement. A total of 50 µL of PBS buffer, used as the sample substitute, was added into the control reaction mixture. ACEi activity was calculated as follows: ACEi activity (%) = [(HA control − HA sample)/HA control] × 100%(1)

Data set [4] concerns HUVECs. The experiment in a line: Viability of HUVECs (MTT). Type of data set: cell-based, Human. To be noted: for Cell viability of HUVECs: 400 µM; for Viability of HUVECs, result in words: 400 μM, 24 h, versus control and other concentration groups, p < 0.05. The protocol:
(§2) HUVECs were cultured in DMEM at 37 °C in a humidified 5% CO2 atmosphere, and the DMEM contained penicillin (100 U/mL), FBS (10%, v/v) and streptomycin ([…]). After 24 h, the cells were used for follow-up experiments.
The MTT method was employed to detect the viability of HUVECs incubated with MHP6, MHP7 and MHP9 [38]. In brief, HUVECs were seeded in 96-well plates and cultured for 24 h. Subsequently, HUVECs were separately treated with MHP6, MHP7 and MHP9 (100, 200, 300 or 400 μM) at 37 °C. After 24 h, MTT was added into the cell culture to reach a final concentration of 2 mg/mL. After 4 h, DMSO was added into each well and the absorbance at 490 nm was determined. Cell viability was calculated according to the following formula:Cell viability (%) = (Asample/Acontrol) × 100(2)

Data set [5] deals with HUVECs, nitric oxide (NO) level. The data set can be described thus: NO production in HUVECs (assay kit). It is filed as cell-based, Human. The conditions noted are these: for NO content in NE-treated HUVECs: peptide 300 μM + NE, NE alone 21.34 ± 1.24 µM; for NO content in NE-treated HUVECs / NO production level in HUVECs / NO level in HUVECs: mean ± SD, n = 3; for NO production level in HUVECs: peptide 300 μM, 24 h, without NE; for NO production level in HUVECs / NO level in HUVECs: control 35.01 ± 1.38 µM; for NO content in HUVECs, result in words: treatment with peptide. The protocol: as §2
(§3) After treatment with ACEi peptides (MHP6, MHP7 and MHP9, respectively) for 24 h, the NO and ET-1 content in the HUVECs was separately determined according to their assay kits as per manufacturers’ protocol.

The subject of data set [6] is HUVECs, endothelin-1 (ET-1) level. The experiment in a line: ET-1 production in HUVECs (assay kit). It is filed as cell-based, Human. To be noted: for ET-1 content in NE-treated HUVECs: peptide 300 μM + NE (0.5 μM), NE alone 69.58 ± 3.11 pg/mL; for ET-1 content in HUVECs, result in words: peptide at 100–300 μM. The protocol:
as §2, §3

Data set [7] concerns Nrf2 and heme oxygenase-1 (HO-1) proteins in HUVECs. To be noted: oxidative damage, ref [73]; cited from earlier work.
Text: as §1

Setting [8] is: peptide 300 μM, 24 h, without NE, control 54.87 ± 2.57 pg/mL, mean ± SD, n = 3.

Like-named read-outs stand apart in the source and are kept apart here.

T1 sequence (P12821 30-1306, species assumed): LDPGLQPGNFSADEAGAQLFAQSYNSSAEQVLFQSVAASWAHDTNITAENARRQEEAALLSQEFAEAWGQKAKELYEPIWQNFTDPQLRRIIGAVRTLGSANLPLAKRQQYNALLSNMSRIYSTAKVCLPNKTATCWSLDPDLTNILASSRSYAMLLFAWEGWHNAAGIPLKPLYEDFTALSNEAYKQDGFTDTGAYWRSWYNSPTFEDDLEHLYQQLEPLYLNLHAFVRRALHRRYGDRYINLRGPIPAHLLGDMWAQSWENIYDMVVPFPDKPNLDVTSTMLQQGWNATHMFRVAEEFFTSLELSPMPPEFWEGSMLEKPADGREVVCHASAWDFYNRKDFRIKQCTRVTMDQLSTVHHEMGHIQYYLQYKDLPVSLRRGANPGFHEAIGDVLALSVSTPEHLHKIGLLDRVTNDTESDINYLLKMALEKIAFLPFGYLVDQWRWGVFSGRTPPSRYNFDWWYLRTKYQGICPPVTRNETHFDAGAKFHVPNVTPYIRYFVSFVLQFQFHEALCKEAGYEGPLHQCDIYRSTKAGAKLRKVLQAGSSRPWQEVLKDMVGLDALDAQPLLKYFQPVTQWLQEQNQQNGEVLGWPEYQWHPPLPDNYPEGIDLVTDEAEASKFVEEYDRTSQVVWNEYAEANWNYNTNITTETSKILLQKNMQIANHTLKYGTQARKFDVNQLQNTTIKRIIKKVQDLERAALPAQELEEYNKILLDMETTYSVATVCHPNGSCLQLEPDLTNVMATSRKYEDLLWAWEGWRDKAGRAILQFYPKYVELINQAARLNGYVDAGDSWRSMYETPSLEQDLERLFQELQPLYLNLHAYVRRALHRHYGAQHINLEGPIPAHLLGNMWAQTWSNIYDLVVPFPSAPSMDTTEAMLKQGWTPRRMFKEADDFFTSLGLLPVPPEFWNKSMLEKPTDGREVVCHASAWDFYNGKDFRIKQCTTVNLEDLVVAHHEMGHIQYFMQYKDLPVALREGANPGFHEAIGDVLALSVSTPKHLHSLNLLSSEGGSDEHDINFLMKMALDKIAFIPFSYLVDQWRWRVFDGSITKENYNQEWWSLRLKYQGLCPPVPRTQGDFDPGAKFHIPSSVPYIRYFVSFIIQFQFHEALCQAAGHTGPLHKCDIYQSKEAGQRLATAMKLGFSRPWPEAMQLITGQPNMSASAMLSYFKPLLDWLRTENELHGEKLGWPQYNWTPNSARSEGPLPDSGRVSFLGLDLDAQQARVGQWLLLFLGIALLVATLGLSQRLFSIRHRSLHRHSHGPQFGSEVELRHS

As for WGESF [from tuna roes], the “ET-1 secretion and NO generation in HUVECs” value with HUVECs [1] is “significantly bring down ET-1 secretion and improve the NO generation in HUVECs”.
In the case of WSPGF [from tuna roes], in the data set with HUVECs [1], the “ET-1 secretion and NO generation in HUVECs” value is “significantly bring down ET-1 secretion and improve the NO generation in HUVECs”.
IKSW [ACEi peptide from miiuy croakers]: on ACE [2] (peptide from miiuy croakers, ref [31]), the “Affinity with ACE” value is -9.3 kcal/mol.
On ACE [3], H-SEGPK-OH [MHP6, Ser-Glu-Gly-Pro-Lys] registered an ACEi activity of 86.34 ± 3.25%. Besides, in the data set with HUVECs [4], the “Cell viability of HUVECs” value was 91.27 ± 2.64% and the “Viability of HUVECs, result in words” value is on record as “might lead to some adverse harm to the function of HUVECs”. The “NO content in NE-treated HUVECs” value in data set [5] (p < 0.001) is 31.24 ± 1.29 µM. In data set [5], the “NO production level in HUVECs” value was determined as 51.68 ± 2.38 µM and the “NO content in HUVECs, result in words” value is “significantly increased”. In addition, the “ET-1 content in NE-treated HUVECs” value in data set [6] (p < 0.001, mean ± SD, n = 3) is on record as 57.62 ± 1.95 pg/mL. Besides, in data set [6] (setting [8]), the “ET-1 content in HUVECs” value is listed as 40.35 ± 1.96 pg/mL. Moreover, in data set [6] (p < 0.001), the “ET-1 content in HUVECs, result in words” value is given as “significantly reduce the ET-1 content in HUVECs”.
Turning to IVTNWDDMEK, the “NO and ET-1 production in HUVECs” value in the data set with HUVECs [1] is “regulate NO and ET-1 production in a concentration-dependent manner”. Also, the “Expression levels of Nrf2 and HO-1 proteins” value in data set [7] was “positively regulate the expression levels of Nrf2 and heme oxygenase-1 (HO-1) proteins”.
On to YEGDP, for which the “Affinity with ACE” value on ACE [2] (peptide from tuna milts, ref [32]) is -8.8 kcal/mol.
As to `C[C@H](CS)C(=O)N1CCC[C@H]1C(=O)O` [Cap, captopril, reference compound], the “NO level in HUVECs” value in data set [5] (Cap treatment) came out at 56.18 ± 2.58 µM. Further, the “ET-1 level in HUVECs” value in data set [6] (Cap 1.0 μM, control 54.87 ± 2.57 pg/mL, mean ± SD, n = 3) is 32.25 ± 1.26 pg/mL.
Consider LVLL [ACEi peptide from soybean], for which the “Affinity with ACE” value on ACE [2] (peptide from soybean, ref [72]) is -8.6 kcal/mol.
On ACE [3], H-FDGPY-OH [MHP7, Phe-Asp-Gly-Pro-Tyr] returned an ACEi activity of 84.99 ± 2.34%. In addition, in the data set with HUVECs [4], the “Cell viability of HUVECs” value is 90.39 ± 3.19% and the “Viability of HUVECs, result in words” value is recorded as “might lead to some adverse harm to the function of HUVECs”. In data set [5] (p < 0.001), the “NO content in NE-treated HUVECs” value was 26.31 ± 1.22 µM. In addition, in data set [5], the “NO production level in HUVECs” value came to 48.91 ± 2.35 µM and the “NO content in HUVECs, result in words” value is reported as “significantly increased”. For the same compound, in data set [6] (p < 0.001, mean ± SD, n = 3), the “ET-1 content in NE-treated HUVECs” value was 61.23 ± 1.89 pg/mL. In addition, the “ET-1 content in HUVECs” value in data set [6] (setting [8]) was determined as 43.87 ± 1.73 pg/mL. Also, in data set [6] (p < 0.001), the “ET-1 content in HUVECs, result in words” value is recorded as “significantly reduce the ET-1 content in HUVECs”.
For the compound `NC[C@H](O)c1ccc(O)c(O)c1` [NE, norepinephrine, reference compound], the “NO level in HUVECs” value in data set [5] (NE treatment, p < 0.001) was determined as 21.34 ± 1.24 µM. Also, the “ET-1 content in HUVECs” value in data set [6] (NE 0.5 μM, control 54.87 ± 2.57 pg/mL, p < 0.001, mean ± SD, n = 3) worked out at 69.58 ± 3.11 pg/mL.
Take H-SPGPW-OH [MHP9, Ser-Pro-Gly-Pro-Trp]: the ACEi activity at ACE [3] is reported as 85.39 ± 3.46%. For the same compound, in the data set on HUVECs [4], the “Cell viability of HUVECs” value turned out to be 91.76 ± 3.22% and the “Viability of HUVECs, result in words” value is given as “might lead to some adverse harm to the function of HUVECs”. The “NO content in NE-treated HUVECs” value in data set [5] (p < 0.001) was 29.87 ± 1.34 µM. For the same compound, in data set [5], the “NO production level in HUVECs” value was 49.83 ± 0.96 µM and the “NO content in HUVECs, result in words” value is recorded as “significantly increased”. Besides, the “ET-1 content in NE-treated HUVECs” value in data set [6] (p < 0.001, mean ± SD, n = 3) is reported as 58.44 ± 2.34 pg/mL. Also, in data set [6] (setting [8]), the “ET-1 content in HUVECs” value was determined as 42.18 ± 2.09 pg/mL. Besides, the “ET-1 content in HUVECs, result in words” value in data set [6] (p < 0.001) is reported as “significantly reduce the ET-1 content in HUVECs”.
For the compound LSFR, the “Affinity with ACE” value on ACE [2] (peptide from M. edulis, ref [30]) is -8.5 kcal/mol.
In the case of VGPAGPRG, the “NO and ET-1 production in HUVECs” value in the data set on HUVECs [1] was “regulate NO and ET-1 production in a concentration-dependent manner”. For the same compound, the “Expression levels of Nrf2 and HO-1 proteins” value in data set [7] is “positively regulate the expression levels of Nrf2 and heme oxygenase-1 (HO-1) proteins”.
